Each compound was assayed on test plant species (assay: Post-emergent herbicidal activity test (greenhouse, foliar spray, visual growth reduction)). Conditions: post-emergence, 336 h, ALOMY: blackgrass (Alopecurus myosuroides), 140 g ai/ha, 14 days after application, read-out: Visual Growth Reduction (%) 14 Days After Application, ALOMY.
Type: in vivo
How it was run: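 Greenhouse plants at first–second true leaf stage sprayed overhead at 187 L/ha with compound in acetone/water/isopropanol/DMSO/crop oil/X-77 carrier; controls received solvent blank. Injury rated visually after 14 d on a 0–100% scale versus untreated and control plants, converted to growth reduction.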

Question: `COC(=O)c1nc(-c2ccc(C(F)(F)F)c(C)c2Cl)ccc1Cl` [F136, methyl 3-chloro-6-(2-chloro-3-methyl-4-(trifluoromethyl)phenyl)picolinate] was tested. Which pest or weed control at 140 g/ha did it give?
Answer: 0 to 29%

Question: Which pest or weed control at 140 g/ha does the source give for `COC(=O)c1nc(-c2ccc(C(C)(F)F)cc2Cl)ccc1Cl` [F112, Methyl 3-chloro-6-(2-chloro-4-(1,1-difluoroethyl)phenyl) picolinate] here?
Answer: 60 to 74%

Same assay, conditions: post-emergence, 336 h, AMARE: redroot pigweed (Amaranthus retroflexus), 140 g ai/ha, 14 days after application, read-out: Visual Growth Reduction (%) 14 Days After Application, AMARE

Question: For `COC(=O)c1nc(-c2ccc(C(F)(F)F)c(C)c2Cl)ccc1Cl` [F136, methyl 3-chloro-6-(2-chloro-3-methyl-4-(trifluoromethyl)phenyl)picolinate], which pest or weed control at 140 g/ha is on record?
Answer: 95 to 100%

Question: `COC(=O)c1nc(-c2ccc(C(C)(F)F)cc2Cl)ccc1Cl` [F112, Methyl 3-chloro-6-(2-chloro-4-(1,1-difluoroethyl)phenyl) picolinate] was tested. Which pest or weed control at 140 g/ha did it give?
Answer: 95 to 100%

Same assay, conditions: post-emergence, 336 h, AVEFA: wild oat (Avena fatua), 140 g ai/ha, 14 days after application, read-out: Visual Growth Reduction (%) 14 Days After Application, AVEFA

Question: For `COC(=O)c1nc(-c2ccc(C(F)(F)F)c(C)c2Cl)ccc1Cl` [F136, methyl 3-chloro-6-(2-chloro-3-methyl-4-(trifluoromethyl)phenyl)picolinate], which pest or weed control at 140 g/ha is on record?
Answer: 0 to 29%

Question: `COC(=O)c1nc(-c2ccc(C(C)(F)F)cc2Cl)ccc1Cl` [F112, Methyl 3-chloro-6-(2-chloro-4-(1,1-difluoroethyl)phenyl) picolinate] was tested. Which pest or weed control at 140 g/ha did it give?
Answer: 95 to 100%

Same assay, conditions: post-emergence, 336 h, CHEAL: lambsquarters (Chenopodium album), 140 g ai/ha, 14 days after application, read-out: Visual Growth Reduction (%) 14 Days After Application, CHEAL

Question: Which pest or weed control at 140 g/ha does the source give for `COC(=O)c1nc(-c2ccc(C(F)(F)F)c(C)c2Cl)ccc1Cl` [F136, methyl 3-chloro-6-(2-chloro-3-methyl-4-(trifluoromethyl)phenyl)picolinate] here?
Answer: 75 to 84%

Question: Which pest or weed control at 140 g/ha does the source give for `COC(=O)c1nc(-c2ccc(C(C)(F)F)cc2Cl)ccc1Cl` [F112, Methyl 3-chloro-6-(2-chloro-4-(1,1-difluoroethyl)phenyl) picolinate] here?
Answer: 95 to 100%

Same assay, conditions: post-emergence, 336 h, CIRAR: canada thistle (Cirsium arvense), 140 g ai/ha, 14 days after application, read-out: Visual Growth Reduction (%) 14 Days After Application, CIRAR

Question: Which pest or weed control at 140 g/ha does the source give for `COC(=O)c1nc(-c2ccc(C(F)(F)F)c(C)c2Cl)ccc1Cl` [F136, methyl 3-chloro-6-(2-chloro-3-methyl-4-(trifluoromethyl)phenyl)picolinate] here?
Answer: 0 to 29%

Question: For `COC(=O)c1nc(-c2ccc(C(C)(F)F)cc2Cl)ccc1Cl` [F112, Methyl 3-chloro-6-(2-chloro-4-(1,1-difluoroethyl)phenyl) picolinate], which pest or weed control at 140 g/ha is on record?
Answer: 95 to 100%

Same assay, conditions: post-emergence, 336 h, CYPES: yellow nutsedge (Cyperus esculentus), 140 g ai/ha, 14 days after application, read-out: Visual Growth Reduction (%) 14 Days After Application, CYPES

Question: Which pest or weed control at 140 g/ha does the source give for `COC(=O)c1nc(-c2ccc(C(F)(F)F)c(C)c2Cl)ccc1Cl` [F136, methyl 3-chloro-6-(2-chloro-3-methyl-4-(trifluoromethyl)phenyl)picolinate] here?
Answer: 0 to 29%

Question: For `COC(=O)c1nc(-c2ccc(C(C)(F)F)cc2Cl)ccc1Cl` [F112, Methyl 3-chloro-6-(2-chloro-4-(1,1-difluoroethyl)phenyl) picolinate], which pest or weed control at 140 g/ha is on record?
Answer: 45 to 59%

Same assay, conditions: post-emergence, 336 h, DIGSA: crabgrass (Digitaria sanguinalis), 140 g ai/ha, 14 days after application, read-out: Visual Growth Reduction (%) 14 Days After Application, DIGSA

Question: How did the pest or weed control at 140 g/ha turn out when `COC(=O)c1nc(-c2ccc(C(F)(F)F)c(C)c2Cl)ccc1Cl` [F136, methyl 3-chloro-6-(2-chloro-3-methyl-4-(trifluoromethyl)phenyl)picolinate] was run?
Answer: 60 to 74%

Question: With `COC(=O)c1nc(-c2ccc(C(C)(F)F)cc2Cl)ccc1Cl` [F112, Methyl 3-chloro-6-(2-chloro-4-(1,1-difluoroethyl)phenyl) picolinate] as the compound, how does the pest or weed control at 140 g/ha read?
Answer: 85 to 94%

Same assay, conditions: post-emergence, 336 h, ECHCG: barnyardgrass (Echinochloa crus-galli), 140 g ai/ha, 14 days after application, read-out: Visual Growth Reduction (%) 14 Days After Application, ECHCG

Question: How did the pest or weed control at 140 g/ha turn out when `COC(=O)c1nc(-c2ccc(C(F)(F)F)c(C)c2Cl)ccc1Cl` [F136, methyl 3-chloro-6-(2-chloro-3-methyl-4-(trifluoromethyl)phenyl)picolinate] was run?
Answer: 0 to 29%

Question: How did the pest or weed control at 140 g/ha turn out when `COC(=O)c1nc(-c2ccc(C(C)(F)F)cc2Cl)ccc1Cl` [F112, Methyl 3-chloro-6-(2-chloro-4-(1,1-difluoroethyl)phenyl) picolinate] was run?
Answer: 75 to 84%

Same assay, conditions: post-emergence, 336 h, IPOHE: ivy-leaf morning glory (Ipomoea hederacea), 140 g ai/ha, 14 days after application, read-out: Visual Growth Reduction (%) 14 Days After Application, IPOHE

Question: Which pest or weed control at 140 g/ha does the source give for `COC(=O)c1nc(-c2ccc(C(F)(F)F)c(C)c2Cl)ccc1Cl` [F136, methyl 3-chloro-6-(2-chloro-3-methyl-4-(trifluoromethyl)phenyl)picolinate] here?
Answer: 95 to 100%

Question: `COC(=O)c1nc(-c2ccc(C(C)(F)F)cc2Cl)ccc1Cl` [F112, Methyl 3-chloro-6-(2-chloro-4-(1,1-difluoroethyl)phenyl) picolinate] was tested. Which pest or weed control at 140 g/ha did it give?
Answer: 95 to 100%

Same assay, conditions: post-emergence, 336 h, KCHSC: kochia (Bassia scoparia), 140 g ai/ha, 14 days after application, read-out: Visual Growth Reduction (%) 14 Days After Application, KCHSC

Question: How did the pest or weed control at 140 g/ha turn out when `COC(=O)c1nc(-c2ccc(C(F)(F)F)c(C)c2Cl)ccc1Cl` [F136, methyl 3-chloro-6-(2-chloro-3-methyl-4-(trifluoromethyl)phenyl)picolinate] was run?
Answer: 45 to 59%

Question: With `COC(=O)c1nc(-c2ccc(C(C)(F)F)cc2Cl)ccc1Cl` [F112, Methyl 3-chloro-6-(2-chloro-4-(1,1-difluoroethyl)phenyl) picolinate] as the compound, how does the pest or weed control at 140 g/ha read?
Answer: 95 to 100%

Same assay, conditions: post-emergence, 336 h, ORYSA: rice (Oryza sativa), 140 g ai/ha, 14 days after application, read-out: Visual Growth Reduction (%) 14 Days After Application, ORYSA

Question: With `COC(=O)c1nc(-c2ccc(C(F)(F)F)c(C)c2Cl)ccc1Cl` [F136, methyl 3-chloro-6-(2-chloro-3-methyl-4-(trifluoromethyl)phenyl)picolinate] as the compound, how does the pest or weed control at 140 g/ha read?
Answer: 0 to 29%

Question: With `COC(=O)c1nc(-c2ccc(C(C)(F)F)cc2Cl)ccc1Cl` [F112, Methyl 3-chloro-6-(2-chloro-4-(1,1-difluoroethyl)phenyl) picolinate] as the compound, how does the pest or weed control at 140 g/ha read?
Answer: 0 to 29%

Same assay, conditions: post-emergence, 336 h, SETFA: giant foxtail (Setaria faberi), 140 g ai/ha, 14 days after application, read-out: Visual Growth Reduction (%) 14 Days After Application, SETFA

Question: Which pest or weed control at 140 g/ha does the source give for `COC(=O)c1nc(-c2ccc(C(F)(F)F)c(C)c2Cl)ccc1Cl` [F136, methyl 3-chloro-6-(2-chloro-3-methyl-4-(trifluoromethyl)phenyl)picolinate] here?
Answer: 0 to 29%

Question: `COC(=O)c1nc(-c2ccc(C(C)(F)F)cc2Cl)ccc1Cl` [F112, Methyl 3-chloro-6-(2-chloro-4-(1,1-difluoroethyl)phenyl) picolinate] was tested. Which pest or weed control at 140 g/ha did it give?
Answer: 60 to 74%

Same assay, conditions: post-emergence, 336 h, SORVU: grain sorghum (Sorghum vulgare), 140 g ai/ha, 14 days after application, read-out: Visual Growth Reduction (%) 14 Days After Application, SORVU

Question: Which pest or weed control at 140 g/ha does the source give for `COC(=O)c1nc(-c2ccc(C(F)(F)F)c(C)c2Cl)ccc1Cl` [F136, methyl 3-chloro-6-(2-chloro-3-methyl-4-(trifluoromethyl)phenyl)picolinate] here?
Answer: 75 to 84%

Question: For `COC(=O)c1nc(-c2ccc(C(C)(F)F)cc2Cl)ccc1Cl` [F112, Methyl 3-chloro-6-(2-chloro-4-(1,1-difluoroethyl)phenyl) picolinate], which pest or weed control at 140 g/ha is on record?
Answer: 95 to 100%

Same assay, conditions: post-emergence, 336 h, STEME: common chickweed (Stellaria media), 140 g ai/ha, 14 days after application, read-out: Visual Growth Reduction (%) 14 Days After Application, STEME

Question: Which pest or weed control at 140 g/ha does the source give for `COC(=O)c1nc(-c2ccc(C(F)(F)F)c(C)c2Cl)ccc1Cl` [F136, methyl 3-chloro-6-(2-chloro-3-methyl-4-(trifluoromethyl)phenyl)picolinate] here?
Answer: 0 to 29%

Same assay, conditions: post-emergence, 336 h, TRZAS: wheat, spring (Triticum aestivum), 140 g ai/ha, 14 days after application, read-out: Visual Growth Reduction (%) 14 Days After Application, TRZAS

Question: `COC(=O)c1nc(-c2ccc(C(F)(F)F)c(C)c2Cl)ccc1Cl` [F136, methyl 3-chloro-6-(2-chloro-3-methyl-4-(trifluoromethyl)phenyl)picolinate] was tested. Which pest or weed control at 140 g/ha did it give?
Answer: 0 to 29%

Question: With `COC(=O)c1nc(-c2ccc(C(C)(F)F)cc2Cl)ccc1Cl` [F112, Methyl 3-chloro-6-(2-chloro-4-(1,1-difluoroethyl)phenyl) picolinate] as the compound, how does the pest or weed control at 140 g/ha read?
Answer: 60 to 74%

Reference: patent US20230017045A1, “PYRIDINE AND PYRIMIDINE CARBOXYLATE HERBICIDES AND METHODS OF USE THEREOF” (Dow AgroSciences LLC, priority 2017, published 2023)
